Values quoted from earlier work, collected in patent publication US10421941B2, “Process for improving the solubility of cell culture media” (Merck Patent GmbH, priority 2014, dated 2019).

Details: water / aqueous solvents

Row | solubility (in words) | SMILES
1 | poorly soluble | N[C@@H](CSSC[C@H](N)C(=O)O)C(=O)O [cystine]
2 | moderate | CC[C@H](C)[C@H](N)C(=O)O [isoleucine]
3 | moderate | CC(C)C[C@H](N)C(=O)O [leucine]
4 | moderate | CC(C)[C@H](N)C(=O)O [valine]
